assay: method code SF-HPLC, from DOI: 10.1016/b978-0-08-029222-9.50040-8

Row | Compound | logP
1 | CCC(=O)N(C)SN(C)C(=O)Oc1cccc2c1OC(C)(C)C2 | 3.2
2 | CSC(C)=NOC(=O)N(C)SN(C)C(=O)c1ccc(Cl)cc1 | 2.6
3 | CSC(C)=NOC(=O)N(C)SN(C)C(=O)ON=C(C)SC | 1.7
4 | CSC(C)=NOC(=O)N(C)SN(C)C(=O)c1ccccc1 | 2.2
5 | CC(C)C(=O)N(C)SN(C)C(=O)Oc1cccc2c1OC(C)(C)C2 | 3.6
6 | CSC(C)=NOC(=O)N(C)SN(C(=O)c1ccc(C)cc1)C(C)C | 3.4
7 | CC(=O)N(C)SN(C)C(=O)Oc1cccc2c1OC(C)(C)C2 | 2.7
8 | CSC(C)=NOC(=O)N(C)SN(C)C(=O)OC1CCCCC1 | 3.6
9 | CCCCN(SN(C)C(=O)ON=C(C)SC)C(=O)c1ccccc1 | 3.4
10 | CCCCCCCCCCOC(=O)N(C)SN(C)C(=O)ON=C(C)SC | 6.2
11 | CN(SN(C)C(=O)c1ccccc1Cl)C(=O)Oc1cccc2c1OC(C)(C)C2 | 4.1
12 | CSC(C)=NOC(=O)N(C)SN(C)C(=O)C(C)C | 2.2
13 | CSC(C)=NOC(=O)N(C)SN(C)C(=O)c1c(Cl)cccc1Cl | 2.6
14 | CCCCN(SN(C)C(=O)O/N=C(\C)SC)C(=O)OC | 2.5
15 | CCCCCCOC(=O)N(C)SN(C)C(=O)ON=C(C)SC | 4.2
16 | CCC(=O)N(C)SN(C)C(=O)ON=C(C)SC | 1.6
17 | CCCCN(SN(C)C(=O)Oc1cccc2c1OC(C)(C)C2)C(=O)OC | 4.6
18 | CSC(C)=NOC(=O)N(C)SN(C)C(=O)C1CC1 | 1.7
19 | CCCCN(SN(C)C(=O)ON=C(C)SC)C(C)=O | 2.4
20 | CCCC(=O)N(C)SN(C)C(=O)Oc1cccc2c1OC(C)(C)C2 | 3.8

Row | Compound | logP
21 | COC(=O)N(C)SN(C)C(=O)O/N=C(\C)SC | 1.4
22 | CCCCCCN(SN(C)C(=O)ON=C(C)SC)C(=O)N(C)C | 3.3
23 | CN(SN(C)C(=O)c1ccc(Cl)cc1Cl)C(=O)Oc1cccc2c1OC(C)(C)C2 | 4.9
24 | CNC(=O)ON=C(C)SC | 0.6
25 | CN(SN(C)C(=O)c1ccc(Cl)cc1)C(=O)Oc1cccc2c1OC(C)(C)C2 | 4
26 | CSC(C)=NOC(=O)N(C)SN(C)C(=O)c1cccc(C(F)(F)F)c1 | 2.5
27 | CSC(C)=NOC(=O)N(C)SN(C)C(=O)c1ccccc1Cl | 2.5
28 | CCCCCCC(=O)N(SN(C)C(=O)ON=C(C)SC)c1ccccc1 | 4.2
29 | CCCCOC(=O)N(CCCC)SN(C)C(=O)ON=C(C)SC | 4.2
30 | CN(SN(C)C(=O)c1ccccc1)C(=O)Oc1cccc2c1OC(C)(C)C2 | 3.5
31 | CCOC(=O)N(C)SN(C)C(=O)Oc1cccc2c1OC(C)(C)C2 | 3.5
32 | CS/C(C)=N\OC(=O)N(C)SN(C)C(=O)c1ccc(C)cc1 | 2.5
33 | CCCC(=O)N(C)SN(C)C(=O)ON=C(C)SC | 2.2
34 | CSC(C)=NOC(=O)N(C)SN(C)C(=O)N(C(C)C)C(C)C | 2.6
35 | COC(=O)N(C)SN(C)C(=O)Oc1cccc2c1OC(C)(C)C2 | 3
36 | CS/C(C)=N\OC(=O)N(C)SN(C)C(C)=O | 1.3
37 | CCN(CC)C(=O)N(C)SN(C)C(=O)ON=C(C)SC | 3.2
38 | CSC(C)=NOC(=O)N(C)SN(C)C(=O)c1cccc(Cl)c1 | 2.7
39 | CSC(C)=NOC(=O)N(C)SN(C)C(=O)c1ccc(Cl)cc1Cl | 3.2
40 | CN(SN(C)C(=O)OC(C)(C)C)C(=O)Oc1cccc2c1OC(C)(C)C2 | 4.3

From the SangsterLogP compilation
